In brackets after ≈: the same amount, converted by molar mass.

The test system of data set [1] is T47D (breast). The experiment in a line: MTT cytotoxicity test, T47D. The data set is classed as cell-based. In general terms: Tetrazolium dyes change colour on reduction, which living cells bring about.
The test system of data set [2] is Colo205 (colon). In words: MTT cytotoxicity test, Colo205. The data set is classed as cell-based.
The test system of data set [3] is Panc1 (pancreas). The experiment in a line: MTT cytotoxicity test, Panc1. It counts as cell-based.
Data set [4] concerns BxPC3 (pancreas). In words: MTT cytotoxicity test, BxPC3. The data set is classed as cell-based.
In data set [5] the test system is U373MG (astrocyte). The experiment in a line: MTT cytotoxicity test, U373MG. It counts as cell-based.
Data set [6] concerns T47D, Colo205, Panc1, BxPC3, U373MG, SK-0V3. In words: MTT cytotoxicity test, activity compared to native chelidonine across the cell lines. To be noted: for activity compared to native chelidonine: overall, times higher than native chelidonine; for activity compared to native chelidonine, range: range of times higher than native chelidonine. The data set is classed as cell-based.

Data set [7] concerns SK-0V3 (ovarian).

In the case of “Chelidoninyl Trifluoroacetate [Chelidonine trifluoroacetate]”, the “IC50, MTT cytotoxicity test” value in data set [1] was 0.02 µg/mL; in data set [2] it was 0.045 µg/mL; in data set [3] it was 0.06 µg/mL; in data set [4] it was 0.03 µg/mL; in data set [5], >4 µg/mL; in data set [7], 0.06 µg/mL. Further, the “activity compared to native chelidonine” value in data set [6] is on record as 5 times. In data set [6], the “activity compared to native chelidonine, range” value was 4-10 times.

For `CN1Cc2c(ccc3c2OCO3)[C@@H]2[C@H]1c1cc3c(cc1C[C@@H]2O)OCO3` [Chelidonine], the IC50 in data set [1] (Homo sapiens) is 0.2 µg/mL (≈ 0.566 µM); in data set [2] (Homo sapiens, COLO 205), 0.37 µg/mL (≈ 1.05 µM); in data set [3] (Homo sapiens, PANC-1) it was 0.25 µg/mL (≈ 0.707 µM); in data set [4] (Homo sapiens, BXPC-3), > 8 µg/mL; in data set [5] (Homo sapiens, U373 MG) it was > 8 µg/mL.

`CN1Cc2c(ccc3c2OCO3)C2C(OC(=O)OC(Cl)(Cl)Cl)Cc3cc4c(cc3C21)OCO4` (centres unmarked) [Chelidoninyl trichloromethyl carbonate, Chelidoninyl Trichloromethyl Carbonate]: the “IC50, MTT cytotoxicity test” value was 0.2 µg/mL (≈ 0.389 µM) in data set [1]; 0.5 µg/mL (≈ 0.971 µM) in data set [2]; 0.25 µg/mL (≈ 0.486 µM) in data set [3]; >8 µg/mL in data set [4]; >8 µg/mL in data set [5].

In the case of `COC(=O)CCC(=O)O[C@H]1Cc2cc3c(cc2[C@@H]2[C@H]1c1ccc4c(c1CN2C)OCO4)OCO3` [Chelidoninyl methyl succinate, Succinic Acid Chelidoninyl Methyl ester], the “IC50, MTT cytotoxicity test” value was 0.02 µg/mL in data set [1]; 0.0035 µg/mL in data set [2]; 0.005 µg/mL in data set [3]; <0.0035 µg/mL in data set [4]; 4 µg/mL in data set [5]; 0.0035 µg/mL in data set [7]. Further, the “activity compared to native chelidonine” value in data set [6] is on record as “approximately 30 times”. Besides, the “activity compared to native chelidonine, range” value in data set [6] is 50-150 times.

By IC50 is commonly meant the concentration at which inhibition is half-maximal.

Values taken from patent publication US20080039483A1, “Novel Chelidonine Derivatives, Methods for the Production Thereof, and Use Thereof For Producing Pharmaceutical Agents” (priority 2003, published 2008).
